Experimental data published in patent US6608061B2, “Bisaryl compound and medicament for cancer treatment comprising the same” (Kyoma Hakko Kogyo Co., Ltd., priority 1997, dated 2003).

What was measured:
[1] = test system: HeLa S3 cells; assay: Test for growth inhibition of HeLa S3 cells; format: cell-based; conditions: Homo sapiens, HeLa S3, 72 h, HeLa S3 cells, 72 hours with test compound, Cell Proliferation Kit II; read-out: Cell growth inhibition (IC50)
Experimental: Test for Growth Inhibition of Hela S3 Cells
HeLa S3 cells prepared at 1×10^4 cells/ml in MEM culture medium containing 10% fetal bovine serum and 2 mM glutamine were added to each well of a 96-well microtiter plate (0.1 ml for each well). The cells were cultured at 37° C. in a CO2 incubator for 24 hours, and then 0.05 ml of test compound appropriately diluted with the above medium was added to each well, and then the mixture was cultured at 37° C. in a CO2 incubator for 72 hours. After the culture supernatant was removed, each well was washed with 0.1 ml of PBS buffer twice, and 0.1 ml of the aforementioned medium was added to each well again.
Cell Proliferation Kit II (Boehringer Mennheim) was used for measurement of cell number in each well. After a coloring reaction reagent was added, the plate was warmed to 37° C. in a CO2 incubator for 3 hours. Then, absorbances at 490 nm and 655 nm were measured by a microplate reader, and a value (difference of absorbance) was calculated for each well by subtracting the absorbance at […] from the absorbance at 490 nm. By comparing the differences of absorbance for cells without treatment and cells treated with a test compound at a known concentration, a concentration of test compound which inhibited the cell growth by 50% was calculated, and the value obtained was determined as IC50. The values of RNR inhibitory activity obtained in Example 8, and the values of cell growth inhibitory activity obtained in Example 9 are shown in the following tables (the compound numbers used in the tables correspond to the compound numbers shown in the aforementioned tables).

[2] = target: T1, human RNR (purified R1 and R2 subunits) (Homo sapiens, UniProt P23921+P31350); assay: In vitro measurement of human RNR inhibitory activity (conversion of CDP to dCDP, HPLC); format: biochemical; conditions: 100 μM CDP, 37° C., 30 minutes, read-out: RNR Inhibition (IC50)
T1 construct: made in house; host or cells: Escherichia coli BL21(λDE3)pLysS, plasmids pETR1 and pETR2 (pET3a backbone)
T1 sequence (P23921 1-792): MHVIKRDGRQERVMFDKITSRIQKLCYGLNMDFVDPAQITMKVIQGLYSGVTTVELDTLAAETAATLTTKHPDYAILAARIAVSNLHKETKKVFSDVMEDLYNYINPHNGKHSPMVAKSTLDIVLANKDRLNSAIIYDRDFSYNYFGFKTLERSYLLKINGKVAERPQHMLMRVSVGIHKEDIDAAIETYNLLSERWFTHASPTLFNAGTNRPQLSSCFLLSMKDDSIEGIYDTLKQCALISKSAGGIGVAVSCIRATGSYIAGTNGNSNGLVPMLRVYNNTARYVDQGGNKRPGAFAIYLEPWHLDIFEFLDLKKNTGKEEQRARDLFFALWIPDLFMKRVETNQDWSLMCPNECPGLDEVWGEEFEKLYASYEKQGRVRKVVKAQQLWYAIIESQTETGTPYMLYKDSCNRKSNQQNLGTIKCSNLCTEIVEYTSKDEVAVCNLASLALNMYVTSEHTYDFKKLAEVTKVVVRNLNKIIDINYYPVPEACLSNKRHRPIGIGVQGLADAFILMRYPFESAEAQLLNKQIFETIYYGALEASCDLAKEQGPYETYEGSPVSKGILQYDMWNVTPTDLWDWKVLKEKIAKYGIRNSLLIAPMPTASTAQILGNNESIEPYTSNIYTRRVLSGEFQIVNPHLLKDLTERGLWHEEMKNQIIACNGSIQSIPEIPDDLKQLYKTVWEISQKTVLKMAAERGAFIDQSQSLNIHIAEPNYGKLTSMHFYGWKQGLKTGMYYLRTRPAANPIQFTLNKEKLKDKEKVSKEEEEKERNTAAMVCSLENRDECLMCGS
T1 sequence (P31350 1-389): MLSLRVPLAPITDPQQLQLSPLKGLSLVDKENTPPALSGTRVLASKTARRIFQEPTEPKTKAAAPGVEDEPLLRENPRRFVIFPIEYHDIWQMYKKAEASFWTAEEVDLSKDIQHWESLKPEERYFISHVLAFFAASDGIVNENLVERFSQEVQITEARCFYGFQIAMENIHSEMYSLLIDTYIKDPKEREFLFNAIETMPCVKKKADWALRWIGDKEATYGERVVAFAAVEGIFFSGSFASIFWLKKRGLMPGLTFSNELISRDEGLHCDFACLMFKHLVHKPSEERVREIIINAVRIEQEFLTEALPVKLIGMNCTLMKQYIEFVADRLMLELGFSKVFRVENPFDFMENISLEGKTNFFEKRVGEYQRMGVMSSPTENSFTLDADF

[3] = test system: human ovary cancer A2780 cells; assay: Antineoplastic effect against human ovary cancer A2780 cells transplanted to nude mice; format: in vivo, nude mice BALB/cAJcl-nu; conditions: Mus musculus, ip, 168 h; A2780 s.c. in nude mice; 500 mg/kg/day intraperitoneally once a day for 5 days; evaluation day 7; read-out: Antitumor activity T/C
Text: Antineoplastic Effect Against Human Ovary Cancer A2780 Cells
2 mm cubes (tumor fragments of 8 mm^3) of human ovary cancer A2780 cells were subcutaneously transplanted to nude mice BALB/cAJcl-nu (CLEA JAPAN) in the abdomens. When the tumor volume reached to from 50 to 300 mm^3 after the transplantation, the mice were arbitrarily divided into groups each consisting of 5 mice, and intraperitoneally administered with a drug solution once a day for 5 days. After weighing compounds, the drug solution was prepared before use by dissolving the drug in 99.5% ethanol (final concentration: 5%, analytical grade, Kanto Kagaku) or N,N-dimethylacetamide (final concentration: 5%, analytical grade, Kanto Kagaku), adding CREMOPHOR EL (a derivative of caster oil and ethylene oxide, final concentration: 10%, Sigma Chemical) to the solution, and suspending the solution in physiological saline (Otsuka Physiological Saline for Injection, Otsuka Pharmaceutical). For evaluation of the effect, a tumor volume was calculated in accordance with Equation 1, a ratio of tumor volume (V) after the administration of drug solution to tumor volume (V0) before the administration of drug solution was calculation (V/V0), and the ratio was compared with that for the untreated group to determine T/C (Equation 2). In the table, administration dose, T/C and evaluation day are shown. [formula]

Row | Structure (SMILES) | IC50 [1] [µM] | IC50 [2] [µM] | response vs control in vivo at 500 mg/kg/day [3] [%]
1 | COCCOCCOCCN(CCSc1ccc(O)cc1)CCSc1ccc(O)cc1 [Compound 197] | 4.06 | 3.24 | –
2 | COCCOCCN(CCSc1ccc(O)cc1)CCSc1ccc(O)cc1 [Compound 198] | 4.85 | 4.86 | –
3 | OCCOCCN(CCSc1ccc(O)cc1)CCSc1ccc(O)cc1 [Compound 199] | 5.14 | 3.99 | –
4 | CC1(C)OCC(CN(CCSc2ccc(O)cc2)CCSc2ccc(O)cc2)O1 (stereo not shown) [Compound 200] | 4.13 | 4.2 | –
5 | OCC(O)CN(CCSc1ccc(O)cc1)CCSc1ccc(O)cc1 (stereo not shown) [Compound 201] | 4.29 | 2.49 | –
6 | N=C(N)NCCN(CCSc1ccc(O)cc1)CCSc1ccc(O)cc1 [Compound 202] | 42.6 | 1.87 | –
7 | O=C(CN(CCSc1ccc(O)cc1)CCSc1ccc(O)cc1)N1CCCCC1 [Compound 203] | 3.45 | 3.18 | –
8 | N#CCCN(CCC#N)C(=O)CN(CCSc1ccc(O)cc1)CCSc1ccc(O)cc1 [Compound 204] | 3.38 | 1.5 | –
9 | O=C(CN(CCSc1ccc(O)cc1)CCSc1ccc(O)cc1)NC(CO)CO [Compound 205] | 7.32 | 1.19 | –
10 | O=C(CN(CCSc1ccc(O)cc1)CCSc1ccc(O)cc1)N1CCC[C@H]1CO [Compound 206] | 3.31 | 1.13 | –
11 | O=C(CN(CCSc1ccc(O)cc1)CCSc1ccc(O)cc1)NCCO [Compound 207] | 1.71 | 0.87 | –
12 | O=C(CN(CCSc1ccc(O)cc1)CCSc1ccc(O)cc1)N(CCO)CCO [Compound 208] | 5.93 | 3.46 | –
13 | O=C(CN(CCSc1ccc(O)cc1)CCSc1ccc(O)cc1)Nc1nccs1 [Compound 210] | 2.82 | 5.91 | –
14 | CC[N+](CC)(CC)CCCN(CCSc1ccc(O)cc1)CCSc1ccc(O)cc1 [Compound 213] | 180 | 2.06 | –
15 | OC[C@H]1OC(N(CCSc2ccc(O)cc2)CCSc2ccc(O)cc2)[C@@H](O)[C@@H](O)[C@@H]1O (stereo partly shown) [Compound 214] | 7.73 | 2.69 | –
16 | OC[C@H]1OC(N(CCSc2ccc(O)cc2)CCSc2ccc(O)cc2)[C@H](O)[C@@H](O)[C@@H]1O (stereo partly shown) [Compound 215] | 12.7 | 3.68 | –
17 | OC[C@@H]1OC(N(CCSc2ccc(O)cc2)CCSc2ccc(O)cc2)[C@@H](O)[C@H](O)[C@H]1O (stereo partly shown) [Compound 216] | 11.5 | 3.63 | –
18 | OC[C@@H]1OC(N(CCSc2ccc(O)cc2)CCSc2ccc(O)cc2)[C@H](O)[C@H](O)[C@H]1O (stereo partly shown) [Compound 218] | 23.2 | 4.97 | –
19 | NC(=O)[C@H]1OC(N(CCSc2ccc(O)cc2)CCSc2ccc(O)cc2)[C@H](O)[C@@H](O)[C@@H]1O (stereo partly shown) [Compound 219] | 25.2 | 3.51 | –
20 | COCC(=O)Oc1ccc(SCCN(CCSc2ccc(OC(=O)COC)cc2)CC(N)=O)cc1 [Compound 220] | 0.29 | 5.2 | –
21 | CNCC(=O)Oc1ccc(SCCN(CCSc2ccc(OC(=O)CNC)cc2)CC(N)=O)cc1 [Compound 222] | 0.36 | 0.43 | –
22 | CC(C)(CSc1ccc(O)cc1)C(=O)N1CCN(C(=O)C(C)(C)CSc2ccc(O)cc2)CC1 [Compound 227] | – | – | 53
